Reference: PubChem BioAssay (NCI)
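The compound was tested at five concentrations on cells cultured in 96-well plates, with a 48-hour exposure period. TGI denotes the concentration required for complete inhibition of growth.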

What was measured:
Assay in all cases: DTP human tumour cell line panel, 48 h
[1] = system: 786-0 renal
[2] = system: A498 renal
[3] = system: A549 NSCLC
[4] = system: ACHN renal
[5] = system: BT-549 breast
[6] = system: CAKI-1 renal
[7] = system: CCRF-CEM leukemia
[8] = system: COLO 205 colon
[9] = system: DU-145 prostate
[10] = system: EKVX NSCLC
[11] = system: HCC-2998 colon
[12] = system: HCT-116 colon
[13] = system: HCT-15 colon
[14] = system: HL-60(TB) leukemia
[15] = system: HOP-62 NSCLC
[16] = system: HOP-92 NSCLC
[17] = system: HS 578T breast
[18] = system: HT29 colon
[19] = system: IGROV1 ovarian
[20] = system: K-562 leukemia
[21] = system: KM12 colon
[22] = system: LOX IMVI melanoma
[23] = system: M14 melanoma
[24] = system: MALME-3M melanoma
[25] = system: MCF7 breast
[26] = system: MDA-MB-231 breast
[27] = system: MDA-MB-435
[28] = system: MDA-N
[29] = system: MOLT-4 leukemia
[30] = system: NCI-H226 lung
[31] = system: NCI-H23 lung
[32] = system: NCI-H460 lung
[33] = system: NCI-H522 lung
[34] = system: OVCAR-3 ovarian
[35] = system: OVCAR-4 ovarian
[36] = system: OVCAR-5 ovarian
[37] = system: PC-3 prostate
[38] = system: RPMI-8226 leukemia
[39] = system: RXF 393 renal
[40] = system: SF-268 CNS
[41] = system: SF-295 CNS
[42] = system: SF-539 CNS
[43] = system: SK-MEL-2 melanoma
[44] = system: SK-MEL-28 melanoma
[45] = system: SK-MEL-5 melanoma
[46] = system: SK-OV-3 ovarian
[47] = system: SN12C renal
[48] = system: SNB-19 CNS
[49] = system: SR leukemia
[50] = system: SW-620 colon
[51] = system: T-47D breast
[52] = system: TK-10 renal
[53] = system: U251 CNS
[54] = system: UACC-257 melanoma
[55] = system: UACC-62 melanoma
[56] = system: UO-31 renal
[57] = system: OVCAR-8 ovarian
[58] = system: SNB-75 CNS

C=C1C(=O)O[C@@H]2O[C@@]3(C)CC[C@H]4[C@H](C)CC[C@@H]1[C@@]24O3
TGI [1]: 41.3 µM | TGI [2]: > 100 µM | TGI [3]: > 100 µM | TGI [4]: 26.9 µM | TGI [5]: 22.2 µM | TGI [6]: 46.4 µM | TGI [7]: 11.8 µM | TGI [8]: 34.3 µM | TGI [9]: 27.5 µM | TGI [10]: 48.7 µM | TGI [11]: 41 µM | TGI [12]: 32.2 µM | TGI [13]: 27.6 µM | TGI [14]: > 100 µM | TGI [15]: > 100 µM | TGI [16]: 12.4 µM | TGI [17]: > 100 µM | TGI [18]: 83.5 µM | TGI [19]: 28.3 µM | TGI [20]: > 100 µM | TGI [21]: 21.3 µM | TGI [22]: 40.1 µM | TGI [23]: > 100 µM | TGI [24]: 86.4 µM | TGI [25]: 25.3 µM | TGI [26]: 81.8 µM | TGI [27]: > 100 µM | TGI [28]: > 100 µM | TGI [29]: 38.9 µM | TGI [30]: > 100 µM | TGI [31]: 40.1 µM | TGI [32]: 65.9 µM | TGI [33]: 62.8 µM | TGI [34]: 93.5 µM | TGI [35]: 36.3 µM | TGI [36]: > 100 µM | TGI [37]: 52.7 µM | TGI [38]: 36.8 µM | TGI [39]: 54.7 µM | TGI [40]: > 100 µM | TGI [41]: > 100 µM | TGI [42]: 32.2 µM | TGI [43]: 46.9 µM | TGI [44]: > 100 µM | TGI [45]: > 100 µM | TGI [46]: > 100 µM | TGI [47]: 59.2 µM | TGI [48]: > 100 µM | TGI [49]: 47 µM | TGI [50]: > 100 µM | TGI [51]: 38.1 µM | TGI [52]: 32.7 µM | TGI [53]: > 100 µM | TGI [54]: 47.9 µM | TGI [55]: 29.7 µM | TGI [56]: 63 µM

C[C@]12CC[C@H](O)CC1=CC[C@@H]1C2CC[C@]2(C)c3n[nH]nc3CC12 (stereo not given in full)
TGI [1]: > 100 µM | TGI [2]: > 100 µM | TGI [3]: > 100 µM | TGI [4]: > 100 µM | TGI [5]: > 100 µM | TGI [6]: > 100 µM | TGI [7]: > 100 µM | TGI [8]: > 100 µM | TGI [9]: > 100 µM | TGI [10]: > 100 µM | TGI [11]: > 100 µM | TGI [12]: > 100 µM | TGI [14]: > 100 µM | TGI [15]: > 100 µM | TGI [16]: > 100 µM | TGI [17]: > 100 µM | TGI [18]: > 100 µM | TGI [19]: > 100 µM | TGI [20]: > 100 µM | TGI [21]: > 100 µM | TGI [23]: > 100 µM | TGI [24]: > 100 µM | TGI [25]: > 100 µM | TGI [26]: > 100 µM | TGI [27]: > 100 µM | TGI [28]: > 100 µM | TGI [29]: > 100 µM | TGI [30]: > 100 µM | TGI [31]: > 100 µM | TGI [32]: > 100 µM | TGI [33]: > 100 µM | TGI [34]: > 100 µM | TGI [35]: > 100 µM | TGI [36]: > 100 µM | TGI [57]: > 100 µM | TGI [37]: > 100 µM | TGI [39]: > 100 µM | TGI [40]: > 100 µM | TGI [41]: > 100 µM | TGI [42]: > 100 µM | TGI [44]: > 100 µM | TGI [45]: > 100 µM | TGI [46]: > 100 µM | TGI [47]: > 100 µM | TGI [48]: > 100 µM | TGI [58]: > 100 µM | TGI [49]: 96.4 µM | TGI [50]: > 100 µM | TGI [51]: > 100 µM | TGI [52]: > 100 µM | TGI [53]: > 100 µM | TGI [54]: > 100 µM | TGI [55]: > 100 µM | TGI [56]: > 100 µM
